≈ marks a conversion by molar mass, not a printed value. Calls of active or inactive are those of the source. No cut-off for these calls is given here.
Legend:
Candida albicans [1] = assay: Antifungal activity against clinical isolate fluconazole-resistant Candida albicans Gu5 infected in BALB/c mouse assessed as reduction in renal neutrophil infiltration at 6 mg/kg, ip administered on day 1 and day 3 post fungal infection measured after 7 days by periodic acid-schiff/hematoxylin and eosin staining based microscopic analysis; format: functional, organism-based; settings: time 7.0 day
Candida albicans [2] = assay: Antifungal activity against clinical isolate Candida albicans SCUPC2R14MPG2A harbouring UPC2 mutation overexpressing […] Erg11 assessed as inhibition of fungal growth measured after 24 hrs by CLSI based microtiter plate analysis; format: functional
[Candida] auris [3] = Antifungal activity against clinical isolate fluconazole-resistant Candida auris CBS12774 assessed as inhibition of fungal growth measured after 24 hrs by CLSI based microtiter plate analysis; format: functional; settings: Candidozyma auris
Cryptococcus neoformans = assay: Antifungal activity against clinical isolate fluconazole-resistant Cryptococcus neoformans H99 assessed as inhibition of fungal growth measured after 24 hrs by CLSI based microtiter plate analysis; format: functional
Candida tropicalis = assay: Antifungal activity against clinical isolate fluconazole-resistant Candida tropicalis CT10 assessed as inhibition of fungal growth measured after 24 hrs by CLSI based microtiter plate analysis; format: functional
Candida albicans [4] = assay: Antifungal activity against wild-type Candida albicans SC5314 assessed as decrease in viable count measured after 24 hrs by colony-counting based time-killing kinetics assay; format: functional, organism-based; settings: dose 2-4 µg/ml
[Candida] auris [5] = Antifungal activity against clinical isolate fluconazole-resistant Candida auris CBS12774 assessed as decrease in viable count measured after 24 hrs by colony-counting based time-killing kinetics assay; format: functional, organism-based; settings: Candidozyma auris, dose 2-4 µg/ml
[6] = Selectivity ratio of IC50 for cytotoxicity against human HBE cells to MIC80 for antifungal activity against clinical isolate Candida albicans YEM13 overexpressing efflux pump MdrL; format: toxicity, cell-based
Candida albicans [7] = assay: Inhibition of biofilm formation in wild-type Candida albicans SC5314 at 2 microg/ml measured after 24 hrs by alamar blue staining based colorimetric analysis; format: functional, organism-based; settings: dose 2.0 µg/ml
[Candida] auris [8] = Inhibition of biofilm formation in clinical isolate fluconazole-resistant Candida auris CBS12774 at 2 microg/ml measured after 24 hrs by alamar blue staining based colorimetric analysis; format: functional, organism-based; settings: Candidozyma auris, dose 2.0 µg/ml
Candida albicans [9] = assay: Inhibition of biofilm formation in fluconazole-resistant clinical isolate Candida albicans Gu5 at 8 microg/ml measured after 24 hrs by alamar blue staining based colorimetric analysis; format: functional
Candida albicans [10] = assay: Antifungal activity against clinical isolate fluconazole-resistant Candida albicans Gu5 infected in BALB/c mouse assessed as fold reduction in kidney fungal burden at 6 mg/kg, ip administered on day 1 and day 3 post fungal infection measured after 7 days; format: functional; settings: time 7 day

## C=C1C(=O)[C@@]2(C)CC[C@@H]3[C@@]1(CC[C@H]1[C@@]3(C)CCC[C@@]1(C)C(=O)OCCCOc1ccc(C(=N)N)cc1)C2
Candida albicans [1]
  Activity: Active
Candida albicans [2]
  MIC80: 1 µg/mL (≈ 1.97 µM)
[Candida] auris [3]
  MIC80: 2 µg/mL (≈ 3.95 µM)
Cryptococcus neoformans
  MIC80: 2 µg/mL (≈ 3.95 µM)
Candida tropicalis
  MIC80: 2 µg/mL (≈ 3.95 µM)
Candida albicans [4]
  Activity: Dose-Dependent Effect
[Candida] auris [5]
  Activity: Dose-Dependent Effect
[6]
  selectivity ratio: 8
Candida albicans [7]
  inhibition: Active
[Candida] auris [8]
  inhibition: Active
Candida albicans [9]
  inhibition at 8 µg/mL: 81.5%
Candida albicans [10]
  fold change (FC): ~50

Reference: ChEMBL document CHEMBL5365543, “Benzamidine Conjugation Converts Expelled Potential Active Agents into Antifungals against Drug-Resistant Fungi” (J Med Chem, 2023)
